For one data set, the target named is T1, EGFR (L858R/T790M) (Homo sapiens, UniProt P00533, L858R/T790M).
T1 construct: purchased Invitrogen Corporation PR8911A
The experiment in a line: Inhibitory action on tyrosine kinase activity of mutant EGFR (L858R/T790M), Caliper. The class given is biochemical. The following applies: kinase 10 nM, ATP 19 μM, polypeptide 3 μM, 60 min. The protocol:
EGFR(L858R/T790M): Invitrogen Corporation, catalogue No. PR8911A
(§1) P22(polypeptide substrate): GL Biochem Ltd., catalogue No. 112393
(§2) 3.2 Formulation of Kinase Buffer: 50 mM HEPES, pH 7.5, 0.0015% Brij-35, 10 mM MgCl2, and 2 mM DTT(dithiothreitol).
(§3) 3.3 Formulation of Termination Solution: 100 mM HEPES, pH 7.5, 0.015% Brij-35, 0.2% Coating Reagent #3 (prepared by Caliper workstation), and 50 mM EDTA (ethylene diamine tetraacetic acid).
(§4) 3.4.1 Formulation of a 50-fold concentration of a compound: for example, if the final concentration of the compound for assay is 12.5 nM, 50-fold concentration is 625 nM. The 50-fold concentration of the compound working solution was subjected to a 4-fold dilution with DMSO in a 96-well plate to obtain seven diluted concentrations in total.
(§5) 3.4.2 Transferring the 5-fold concentration of compound to a reaction plate: 10 μl solution was transferred from each well of the above-mentioned 96-well plate to another 96-well plate, and then 90 μl kinase buffer was added. 5 μl solution was transferred from the above 96-well plate to a 384-well reaction plate. […]
(§6) 3.6 The substrate conversion rate data was read with Caliper. […]
(§7) Inhibition rate %=(max-conversion rate)/(max-min)x100%, wherein max refers to the conversion rate of the DMSO control, min refers to the conversion of enzyme-free control. IC50 values were determined by the inhibition curve.

Another data set has as its target T2, EGFR (L858R) (Homo sapiens, UniProt P00533, L858R).
T2 construct: purchased Invitrogen Corporation PR7447A
As to the kind of experiment: Inhibitory action on tyrosine kinase activity of mutant EGFR (L858R), Caliper. The class given is biochemical. The following applies: kinase 9 nM, ATP 111 μM, polypeptide 3 μM, 60 min. How it is done:
EGFR(L858R): Invitrogen Corporation, catalogue No. PR7447A
as §1, §2, §3, §4, §5, §6, §7

The subject of data set [1] is human epidermoid carcinoma cell line A431. As to the kind of experiment: In vitro inhibitory action on human tumor cells, A431 (MTT). The class given is cell-based. The following applies: MTT assay, usually 3 days, read-out: Inhibitory activity on human epidermoid cancer cell line A431 (IC50). How it is done:
Human epidermoid carcinoma cell line A431, human non-small cell lung cancer cell line HCC827, head and neck cancer cell lines Fadu and human pancreatic cancer cell line AsPC-1 were purchased from Cell Bank, Chinese Academy of Sciences.
3.2 Cell culture method: cells were cultured in the complete medium at 37° C. under 5% CO2 and saturated humidity until logarithmic growth phase, i.e., adherent cells substantially approach complete confluence, and then collected for subsequent assay. For the adherent cells, they were firstly digested with trypsin/EDTA to detach.
3.3 A certain number of cells were seeded into 96-well cell culture plates (hereinafter referred to as 96-well plates). […] Finally, total cellular protein in the wells was determined using SRB assay, or cell viability was determined with MTT assay.
3.3.1 The cell seeding concentration was determined by cell growth curve assay which completely simulates compound inhibition assay process. […]
3.4 Dilution and addition of compounds: the concentration of DMSO that can be tolerant by the cells was determined by DMSO tolerance assay, and thereby selecting the dilution and addition methods of compounds. The effects of different concentrations of DMSO on cell growth were determined by DMSO tolerance assay. […] Two methods are finally determined as follows. […]
(In general: Tetrazolium assays rely on reduction of a dye to a coloured formazan, in cell work by metabolically active cells.)

Data set [2] concerns salmonella typhimurium TA97, TA98, TA100, TA1535, and TA102. The following applies: with or without S9; for mutagenicity on TA102 strain: doses of less than and equal to 150 μg/plate; for mutagenicity on TA97 strain: doses of less than and equal to 500 μg/plate; for mutagenicity on TA98, TA100 and TA1535 strains: doses of less than and equal to 1500 μg/plate.
Description: Direct mutagen 1: Dexon (Dima Technology Inc.; Batch No.: 456-2D)
Indirect mutagen: 2-aminoanthracene, 2-AA (Sigma-Aldrich Inc.; Batch No.: STBB1901V)
Strains: histidine auxotrophic mutants of salmonella typhimurium TA97, TA98, TA100, TA1535, and TA102 (Institute of Laboratory Animal Science, Chinese Academy of Medical Sciences) are cryopreserved in liquid nitrogen.
Bacteria suspension cryopreserved in liquid nitrogen was quickly thawed in a 37° C. water bath. 100 μL bacteria suspension was withdrawn and seeded into 20 mL nutrient broth. After static culture in the dark at 37° C. for 16 h, the bacteria suspension was taken for mutagenicity assay.
The solution was filtered through a 0.22 μm filter membrane. 1.0 mL initial filtrate was discarded during filtrating. Then the filtrated test sample solution (15 mg/mL) was gradiently diluted with DMSO to solutions having the concentrations of 5, 1.5, 0.5 and 0.15 mg/mL.
The solution was filtered through a 0.22 μm filter membrane, 1.0 mL initial filtrate was discarded during filtrating. Then the filtrated test sample solution (15 mg/mL) was gradiently diluted with sterile water for injection to solutions having the concentrations of 5, 1.5, 0.5 and 0.15 mg/mL.
Dexon: an appropriate amount of Dexon was weighed and dissolved in sterile water for injection to obtain a solution with a concentration of 250 μg/mL. The solution was used after being filtered through 0.22 μm sterile filter membrane.
The solution was used after being filtered through 0.22 μm sterile filter membrane.
2-aminoanthracene: an appropriate amount of 2-aminoanthracene was weighed and dissolved in DMSO to obtain a solution with a concentration of 30 μg/mL. The solution was used after being filtered through 0.22 μm sterile filter membrane.
The Sprague-Dawley rat liver S9 fraction used in this assay was prepared on May 18, 2012 with Batch No.: 20120518. It was stored in liquid nitrogen and the protein concentration is 20.477 mg/mL, which can be used before May 17, 2014. Sterility test and biological activity detection met the requirements of the assay.
Before use, S9 mixture was formulated under sterile conditions. The formulated volume was determined by operator according to the requirements of the assay. Other solvents were formulated in accordance with the standard operating procedures of the Centre.
0.1 mL test article or control drug solution, 0.5 mL S9 mixture or PBS (pH7.4), and 2.0 mL top medium (containing about 0.05 mM histidine, about 0.05 mM biotin, about 0.6% agar, and about 0.5% NaCl) in sequence, and 0.1 mL bacteria culture solution finally were added into glass test tubes (10 mL). The mixture was rapidly mixed uniformly on a vortex mixer and poured into the surface of the bottom medium. The top medium was spread evenly over the surface of the basal medium by slight rotation.
The plates were placed on a horizontal table until the medium were solidified. Then the plates were inverted and cultured at 37° C. for 48 h (except for the TA102 strain, which was cultured for 72 h). The plates were withdrawn to count the number of visible revertant colonies per plate. The precipitation phenomenon of the test samples was observed when loading and at the end of culture. Three plates were tested for each group under activation and non-activation conditions, respectively.
If the results meet the following one or two criteria, it would be assessed as positive.

Like-named read-outs stand apart in the source and are kept apart here.

T2 sequence (P00533 25-1210 L858R): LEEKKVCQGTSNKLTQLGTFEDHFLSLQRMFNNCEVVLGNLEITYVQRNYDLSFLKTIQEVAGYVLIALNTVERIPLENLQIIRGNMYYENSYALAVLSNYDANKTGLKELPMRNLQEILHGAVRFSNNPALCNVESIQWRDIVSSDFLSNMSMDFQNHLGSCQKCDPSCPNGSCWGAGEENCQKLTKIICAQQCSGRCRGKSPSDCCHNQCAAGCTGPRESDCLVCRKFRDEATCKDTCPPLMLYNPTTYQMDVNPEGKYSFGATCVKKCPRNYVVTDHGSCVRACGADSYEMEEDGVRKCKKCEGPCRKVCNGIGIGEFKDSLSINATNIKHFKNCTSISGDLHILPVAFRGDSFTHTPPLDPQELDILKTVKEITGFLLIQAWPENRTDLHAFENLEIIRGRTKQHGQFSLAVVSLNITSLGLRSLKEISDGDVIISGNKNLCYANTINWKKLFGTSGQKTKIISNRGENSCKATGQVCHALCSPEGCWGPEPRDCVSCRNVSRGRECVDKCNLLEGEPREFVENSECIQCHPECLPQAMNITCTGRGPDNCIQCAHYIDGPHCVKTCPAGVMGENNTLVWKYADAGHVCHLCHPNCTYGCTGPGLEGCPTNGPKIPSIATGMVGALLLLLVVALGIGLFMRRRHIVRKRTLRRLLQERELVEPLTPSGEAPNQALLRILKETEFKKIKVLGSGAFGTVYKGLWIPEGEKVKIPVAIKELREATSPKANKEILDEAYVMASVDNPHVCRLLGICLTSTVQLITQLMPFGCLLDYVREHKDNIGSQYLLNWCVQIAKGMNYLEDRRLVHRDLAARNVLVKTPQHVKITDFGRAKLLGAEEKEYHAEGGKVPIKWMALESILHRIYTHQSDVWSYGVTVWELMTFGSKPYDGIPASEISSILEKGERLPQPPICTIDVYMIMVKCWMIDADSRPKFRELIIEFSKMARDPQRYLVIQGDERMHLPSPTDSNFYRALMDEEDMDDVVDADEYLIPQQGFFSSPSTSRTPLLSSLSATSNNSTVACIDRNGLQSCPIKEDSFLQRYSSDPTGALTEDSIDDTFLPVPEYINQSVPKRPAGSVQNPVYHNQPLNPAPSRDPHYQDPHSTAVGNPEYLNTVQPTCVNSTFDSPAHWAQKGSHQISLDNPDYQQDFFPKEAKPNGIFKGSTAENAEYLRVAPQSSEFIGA
T1 sequence (P00533 25-1210 T790M/L858R): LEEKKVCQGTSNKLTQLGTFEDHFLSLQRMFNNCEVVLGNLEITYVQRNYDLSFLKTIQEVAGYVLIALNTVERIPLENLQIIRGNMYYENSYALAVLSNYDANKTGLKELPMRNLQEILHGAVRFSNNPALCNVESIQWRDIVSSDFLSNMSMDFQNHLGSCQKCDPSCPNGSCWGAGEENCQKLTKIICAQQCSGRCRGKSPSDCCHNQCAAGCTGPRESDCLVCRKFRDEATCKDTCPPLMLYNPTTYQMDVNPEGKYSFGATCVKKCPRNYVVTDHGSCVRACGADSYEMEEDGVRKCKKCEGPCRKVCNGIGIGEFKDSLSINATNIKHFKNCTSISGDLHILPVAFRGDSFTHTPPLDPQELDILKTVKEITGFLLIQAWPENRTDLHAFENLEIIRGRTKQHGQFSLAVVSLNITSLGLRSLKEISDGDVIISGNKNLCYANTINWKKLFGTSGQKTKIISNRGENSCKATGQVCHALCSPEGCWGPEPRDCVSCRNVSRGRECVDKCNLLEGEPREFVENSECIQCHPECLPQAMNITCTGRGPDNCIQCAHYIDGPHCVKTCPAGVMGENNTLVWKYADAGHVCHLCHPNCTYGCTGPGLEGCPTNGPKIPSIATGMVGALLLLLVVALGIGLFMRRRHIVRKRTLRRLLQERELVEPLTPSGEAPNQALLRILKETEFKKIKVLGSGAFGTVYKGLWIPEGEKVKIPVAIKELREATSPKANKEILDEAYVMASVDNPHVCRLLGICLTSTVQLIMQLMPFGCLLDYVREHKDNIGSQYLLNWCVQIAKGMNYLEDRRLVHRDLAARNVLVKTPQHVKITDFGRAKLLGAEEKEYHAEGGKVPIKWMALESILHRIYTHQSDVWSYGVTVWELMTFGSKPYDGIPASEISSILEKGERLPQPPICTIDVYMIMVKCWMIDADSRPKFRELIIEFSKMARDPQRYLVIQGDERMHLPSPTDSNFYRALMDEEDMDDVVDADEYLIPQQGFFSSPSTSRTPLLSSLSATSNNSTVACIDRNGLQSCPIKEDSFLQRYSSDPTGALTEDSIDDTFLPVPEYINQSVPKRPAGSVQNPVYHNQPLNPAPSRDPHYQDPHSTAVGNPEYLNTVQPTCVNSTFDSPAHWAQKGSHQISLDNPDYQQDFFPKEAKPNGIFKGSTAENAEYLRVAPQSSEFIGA

As to `COCCOc1cc2ncnc(Nc3ccc(F)c(Cl)c3)c2cc1NC(=O)C=C1CCN(CCOC)CC1` [Compound 1, N-[4-(3-chloro-4-fluorophenylamino)-7-(2-methoxyethoxy)quinazolin-6-yl]-2-[1-(2-methoxyethyl)piperidin-4-ylidene]acetamide], at EGFR (L858R/T790M), 266 nM corresponded to half-maximal inhibition (IC50). In addition, the IC50 (as a rule, the midpoint of a concentration-inhibition curve) against EGFR (L858R) is 0.4 nM. Further, in data set [1] (Homo sapiens, A-431, 72 h), the IC50 was found to be 125 nM. For the same compound, in data set [2], the “mutagenicity on TA102 strain” value is on record as “no mutagenicity”; the “mutagenicity on TA97 strain” value is recorded as “no mutagenicity”; the “mutagenicity on TA98, TA100 and TA1535 strains” value is given as “no mutagenicity”.
For `COCCOc1cc2ncnc(Nc3ccc(F)c(Cl)c3)c2cc1NC(=O)C=C1CCN(CCOC)CC1.CS(=O)(=O)O` [Compound 3, N-[4-(3-chloro-4-fluorophenylamino)-7-(2-methoxyethoxy)quinazolin-6-yl]-2-[1-(2-methoxyethyl)piperidin-4-ylidene]acetamide dimethylsulfonate], inhibition on EGFR (L858R/T790M) was half-maximal at 235 nM (IC50). This compound gave an IC50 at EGFR (L858R) of 0.45 nM. In addition, the IC50 in data set [1] was 138 nM. Besides, in data set [2], the “mutagenicity on TA102 strain” value was “no mutagenicity”; the “mutagenicity on TA97 strain” value is listed as “no mutagenicity”; the “mutagenicity on TA98, TA100 and TA1535 strains” value was “no mutagenicity”.

The values above are taken from patent US9840494B2, “Quinazoline derivative” (Tianjin Hemay Oncology Pharmaceutical Co., Ltd., priority 2013, dated 2017).
